The values below come from ChEMBL document CHEMBL1201862, “PubChem BioAssay data set” (2004).

Holding throughout (assay): DTP human tumour cell line panel, 48 h
The test system of experiment [1] is RPMI-8226.
For experiment [2], the system named is HCT-116.
The subject of experiment [3] is SN12C.
Experiment [4] deals with SW-620.
Experiment [5] deals with EKVX.
Experiment [6] concerns UACC-257.
The test system of experiment [7] is NCI-H23.
Experiment [8] concerns SNB-75.
Experiment [9] concerns OVCAR-4.
In experiment [10] the test system is UO-31.
Experiment [11] deals with HOP-62.
Experiment [12] relates to A549.
Experiment [13] relates to SK-MEL-28.
The subject of experiment [14] is COLO 205.
Experiment [15] deals with NCI-H460.
The subject of experiment [16] is HCT-15.
Experiment [17] concerns K562.
Experiment [18] deals with RXF 393.
Experiment [19] has as its system HCC 2998.
For experiment [20], the system named is SK-MEL-5.

Structures are written as SMILES.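 Values below derive from 48-hour exposures of cells grown in 96-well plates, with endpoints linearly interpolated between the two concentrations bracketing the appropriate inhibition level. At the GI50, growth is halved.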 Activity calls are given as the source filed them. Rule as the data show it: active = GI50 up to about 1.1 µM and inactive = higher.

A word on the GI50: it is the concentration at which growth is held to half of that of the control. On to `CC(=O)Nc1ccc(/C=C/C(=O)N2CC(CCl)c3c2cc(N)c2ccccc32)cc1` (stereo not drawn), for which the GI50 in experiment [1] is 0.0149 µM (active); in [2], < 0.005 µM (active); in experiment [3], < 0.005 µM (active); in [4], < 0.005 µM (active); in experiment [5], 0.01 µM (active); in [6], 0.0156 µM (active). Further, the 50% growth inhibitory concentration (GI50) in [7] was < 0.005 µM (active); in experiment [8], 0.01 µM (active); in [9] it was 0.0226 µM (active); in experiment [10] it was < 0.005 µM (active); in experiment [11], < 0.005 µM (active); in experiment [12], < 0.005 µM (active). For the same compound, the GI50 was 0.00641 µM (active) in [13]; 0.00893 µM (active) in experiment [14]; < 0.005 µM (active) in [15]; < 0.005 µM in experiment [16]; 0.0211 µM (active) in experiment [17]; < 0.005 µM (active) in [18]. Besides, the GI50 in experiment [19] and in [20] was < 0.005 µM (active) each time.
In the case of `C/C(=C\c1ccc(Cl)cc1)C(C)(C)C(=O)O`, the GI50 in experiment [1], in [2], in [3], in experiment [4], in experiment [5] and in [6] was > 100 µM (inactive) each time. The GI50 in experiment [7], in [8], in experiment [9], in experiment [10], in experiment [11] and in experiment [12] was > 100 µM (inactive) in each case. Besides, the GI50 in experiment [13] was > 100 µM (inactive); in experiment [14] it was > 100 µM (inactive); in [15], > 100 µM (inactive); in experiment [16], > 100 µM; in experiment [17], 1.95 µM (inactive); in experiment [18], > 100 µM (inactive). Besides, the GI50 in experiment [19] and in experiment [20] was > 100 µM (inactive) in each case.
As for `N#C/C(=C\c1ccc(Br)cc1)c1nc(-c2cc3ccccc3oc2=O)cs1`, the GI50 in [1] was 44.1 µM (inactive); in [2] it was 17.5 µM (inactive); in [3], 20 µM (inactive); in [4], 19.8 µM (inactive); in [5] it was 13.3 µM (inactive); in experiment [6] it was 11.7 µM (inactive). In addition, the GI50 in experiment [8] is 7.14 µM (inactive); in experiment [9] it was 17.2 µM (inactive); in [10], 20.2 µM (inactive); in experiment [11], 8.73 µM (inactive); in [12] it was 35.1 µM (inactive); in experiment [13], 28.2 µM (inactive). Also, the GI50 in [14] was > 50 µM (inactive); in experiment [15], 16.7 µM (inactive); in [16], 32.1 µM; in [17], 37.2 µM (inactive); in [18], 19.2 µM (inactive); in experiment [19], 19.6 µM (inactive). Besides, the GI50 in [20] was 21.8 µM (inactive).
As to `CC1=C2C(=C[C@H]3[C@]4(C)CCCC(C)(C)[C@H]4CC[C@]34O[C@H]24)OC1=O`, the GI50 in experiment [1], in experiment [2], in [3], in experiment [4], in experiment [5] and in experiment [6] was > 100 µM (inactive) in each case. Further, the GI50 in experiment [7], in experiment [8], in experiment [9], in [10], in experiment [11] and in [12] was > 100 µM (inactive) each time. The GI50 in experiment [13] was > 100 µM (inactive); in experiment [14] it was > 100 µM (inactive); in experiment [15] it was > 100 µM (inactive); in experiment [16], > 100 µM; in experiment [17], > 100 µM (inactive); in experiment [18] it was > 100 µM (inactive). Besides, the GI50 in experiment [19] and in experiment [20] was > 100 µM (inactive) throughout.
With `O=C1C[C@@H](C(=O)OCc2ccccc2)NC(=O)C[C@@H](C(=O)OCc2ccccc2)NC(=O)C[C@@H](C(=O)OCc2ccccc2)N1`, the GI50 in experiment [1] was 38.8 µM (inactive); in experiment [2], > 84.1 µM (inactive); in experiment [3] it was > 100 µM (inactive); in experiment [4], > 100 µM (inactive); in experiment [5], > 100 µM (inactive); in [6], > 100 µM (inactive). Besides, the GI50 was 47 µM (inactive) in [7]; 1.06 µM (active) in [8]; > 100 µM (inactive) in [9]; > 100 µM (inactive) in [10]; 33.9 µM (inactive) in [11]; > 100 µM (inactive) in experiment [12]. For the same compound, the GI50 in experiment [13] is > 100 µM (inactive); in [14] it was > 100 µM (inactive); in experiment [15] it was > 100 µM (inactive); in experiment [16], > 100 µM; in [17], 4.16 µM (inactive); in experiment [18], 13.3 µM (inactive). For the same compound, the GI50 in experiment [19] was > 95.9 µM (inactive); in experiment [20] it was > 100 µM (inactive).
Consider `Clc1ncc(C(Cl)(Cl)Cl)nc1-c1ccccc1`, for which the concentration for 50% growth inhibition (GI50) in [1] is 0.598 µM (active); in [2], 1.87 µM (inactive); in [3], 2.86 µM (inactive); in experiment [4], 4.21 µM (inactive); in experiment [5], 2.29 µM (inactive); in [6] it was 2.14 µM (inactive). In addition, the GI50 was 2.24 µM (inactive) in experiment [7]; 2.56 µM (inactive) in experiment [8]; 4.04 µM (inactive) in experiment [9]; 1.84 µM (inactive) in [10]; 2.26 µM (inactive) in experiment [11]; 6.46 µM (inactive) in experiment [12]. The GI50 in experiment [13] is 3.79 µM (inactive); in [14] it was 1.87 µM (inactive); in experiment [15] it was 3.01 µM (inactive); in [16], 1.21 µM; in [17], 2.46 µM (inactive); in experiment [18], 1.64 µM (inactive). In addition, the values for the GI50 in [19] and in [20] were 1.52 µM (inactive) and 12.2 µM (inactive), respectively.
As for `N#CSCC1COc2ccccc2O1` (stereo not drawn), the GI50 in [1] is 4.98 µM (inactive); in experiment [2], 5.92 µM (inactive); in experiment [3], 7.57 µM (inactive); in [4] it was 4.97 µM (inactive); in [5] it was > 10 µM (inactive); in experiment [7] it was > 10 µM (inactive). For the same compound, the GI50 in experiment [8], in experiment [9], in [10], in experiment [11], in [12] and in [13] was > 10 µM (inactive) each time. In addition, the GI50 in [14] is > 10 µM (inactive); in experiment [15], > 10 µM (inactive); in [16], 9.89 µM; in experiment [17], 1.77 µM (inactive); in experiment [18] it was > 10 µM (inactive); in [19], > 10 µM (inactive). In [20], the GI50 was 6.87 µM (inactive).
For `O=C1C2C(C(=O)N1OS(=O)(=O)c1ccccc1)N(Cc1ccccc1)C(=O)N2Cc1ccccc1` (stereo not drawn), the GI50 in experiment [1], in experiment [2], in experiment [3], in experiment [4], in experiment [5] and in experiment [6] was > 100 µM (inactive) throughout. For the same compound, the GI50 was > 100 µM (inactive) in experiment [7]; 57.1 µM (inactive) in experiment [8]; > 100 µM (inactive) in experiment [9]; > 100 µM (inactive) in experiment [10]; > 100 µM (inactive) in experiment [11]; > 100 µM (inactive) in experiment [12]. Moreover, the GI50 was > 100 µM (inactive) in experiment [13]; > 100 µM (inactive) in experiment [14]; > 100 µM (inactive) in [15]; > 100 µM in experiment [16]; > 100 µM (inactive) in experiment [17]; 70.8 µM (inactive) in experiment [18]. Moreover, the GI50 in [19] and in experiment [20] was > 100 µM (inactive) in each case.
Turning to `CC(=O)N(CCN1C(=O)c2ccccc2C1=O)CCN1C(=O)c2ccccc2C1=O`, the GI50 in experiment [1], in experiment [2], in experiment [3], in experiment [4], in experiment [5] and in experiment [6] was > 100 µM (inactive) throughout. In addition, the GI50 in experiment [7], in [8], in experiment [9], in experiment [10], in [11] and in experiment [12] was > 100 µM (inactive) throughout. The GI50 in experiment [13] is > 100 µM (inactive); in [14], > 100 µM (inactive); in experiment [15] it was > 100 µM (inactive); in [16] it was > 100 µM; in experiment [17], > 100 µM (inactive); in experiment [18], > 100 µM (inactive). In addition, the GI50 in experiment [19] and in experiment [20] was > 100 µM (inactive) each time.
On to `COC(=O)[C@@H]1c2cc3c(c(O)c2[C@@H](OC)C[C@@]1(C)O)C(=O)c1c(O)cc2c(c1C3=O)OC1O[C@@]2(C)[C@H](O)[C@@H](N(C)C)[C@@H]1O`, for which the GI50 in [1] was 0.192 µM (active); in experiment [2], 0.261 µM (active); in experiment [3], 0.254 µM (active); in experiment [4], 0.193 µM (active); in [5], 0.345 µM (active); in experiment [6], 0.337 µM (active). For the same compound, the 50% growth inhibitory concentration (GI50) is 0.428 µM (active) in experiment [7]; 0.245 µM (active) in experiment [8]; 0.395 µM (active) in experiment [9]; 1.14 µM (inactive) in experiment [10]; 0.198 µM (active) in experiment [11]; 0.435 µM (active) in experiment [12]. Besides, the 50% growth inhibitory concentration (GI50) in [13] was 0.667 µM (active); in experiment [14] it was 0.257 µM (active); in experiment [15] it was 0.129 µM (active); in [16], 0.597 µM; in experiment [17], 0.322 µM (active); in experiment [18], 0.381 µM (active). For the same compound, the figures for the GI50 in [19] and in experiment [20] were 0.251 µM (active) and 0.364 µM (active), respectively.
